Measurements: patent publication US5776932A, “1,3,5-tribsubstituted indazole derivatives, processes for preparing, and for pharmacological treatment therewith” (Arzneimittelwerk Dresden G.m.b.H., priority 1996, dated 1998)

Tests used:
[1] = biological target: T1, arachidonate-5-lipoxygenase (Rattus norvegicus, UniProt P12527); assay: Inhibition of 5-lipoxygenase in prepared macrophages from Wistar rats; format: cell-based; details: quadruple determinations, mean IC50, read-out: IC50 (50% inhibition of 5-lipoxygenase)
T1 construct: using prepared macrophages from Wistar rats; endogenous in cells; host or cells: prepared macrophages from Wistar rats
T1 sequence (P12527 1-673): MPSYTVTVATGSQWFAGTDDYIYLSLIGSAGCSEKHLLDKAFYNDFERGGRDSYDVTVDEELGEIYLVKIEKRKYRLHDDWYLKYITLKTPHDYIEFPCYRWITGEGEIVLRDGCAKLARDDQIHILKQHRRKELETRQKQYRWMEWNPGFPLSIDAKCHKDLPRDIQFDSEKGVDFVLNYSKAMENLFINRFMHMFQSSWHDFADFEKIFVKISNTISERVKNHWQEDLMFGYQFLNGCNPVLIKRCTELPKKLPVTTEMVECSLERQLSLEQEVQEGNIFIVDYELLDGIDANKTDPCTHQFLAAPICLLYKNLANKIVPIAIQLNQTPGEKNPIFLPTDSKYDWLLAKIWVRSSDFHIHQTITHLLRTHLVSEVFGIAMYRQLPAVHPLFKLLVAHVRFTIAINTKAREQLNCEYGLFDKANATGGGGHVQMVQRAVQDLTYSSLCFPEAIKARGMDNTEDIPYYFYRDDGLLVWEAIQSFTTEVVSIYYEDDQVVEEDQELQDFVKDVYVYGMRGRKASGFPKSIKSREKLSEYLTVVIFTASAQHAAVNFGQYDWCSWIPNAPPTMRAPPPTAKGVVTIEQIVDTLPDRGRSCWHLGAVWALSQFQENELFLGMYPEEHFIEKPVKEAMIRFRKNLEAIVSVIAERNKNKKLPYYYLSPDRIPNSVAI
Excerpt: Murphy, R. C. and Matthews, W. R., Purification and Characterization of Leukotrienes from Mastocytoma Cells, Methods in Enzymology, 86, pp. 409-416.
Argentiere, D. D., Ritchie, D. M. et al., Tepoxalin: A Dual Cyclooxygenase/5-Lipoxygenase Inhibitor of Arachidonic Acid Metabolism with Potent Anti-inflammatory Activity and a Favorable Gastrointestinal Profile, The Journal of Pharmacology and Experimental Therapeutics, Vol. 271, No. 3, 1399-1408, 1994.
Carter, G. W., Young, P. R. et al., 5-Lipoxygenase Inhibitory activity of Zileuton, The Journal of Pharmacology and Experimental Therapeutics, Vol. 256, No. 3, 1991.
The experiments were all conducted as quadruple determinations, by combining four partial experiments in each case were combined to determine the mean IC50 value.

[2] = tested on: tracheal segments from actively sensitized guinea-pigs; assay: Inhibition of the antigen (ovalbumin)-induced contraction of isolated tracheal segments from actively sensitized guinea-pigs; set-up: species or system guinea-pig; details: Cavia porcellus; under mepyramine and indomethacin protection; carbachol = 100%
Protocol: For this purpose, isolated tracheal segments from guinea-pigs actively sensitized against ovalbumin by the s.c. administration of 10 μg of ovalbumin with 1 mg of aluminum hydroxide adjuvant, three weeks before removal of the organ, and a booster dose of the same amount of ovalbumin and aluminum hydroxide s.c. one week before removal of the organ. The segments were placed in organ baths filled with a nutrient solution aerated with carbogen which is a mixture of 95% oxygen and 5% carbon dioxide, and kept at 37° C., and were connected to isometric force transducers. After preincubation with mepyramine to eliminate histamine, and indomethacin for the inhibition of cyclooxygenase, 5×10^-7 mol/l carbachol (carbamylcholine chloride) was added and a contraction was induced. 10 μg/ml ovalbumin as an allergen was then added to the bath liquid and the maximum contraction of the tracheal segments which was thereby induced was correlated with the effect of the carbachol as control (=100%). The test substances were added to the organ bath 30 minutes before the allergen-induced contraction. Table 2 below indicates the IC50 values, i.e. the concentrations which cause a 50% inhibition of the contraction of isolated tracheal segments from the guinea-pig. The IC50 values were determined by testing 3-4 concentrations on 4-8 organs in each case.

[3] = tested on: SRS-A bronchoconstriction in guinea-pigs sensitized with ovalbumin; assay: SRS-A bronchoconstriction in anaesthetized, ovalbumin-sensitized guinea-pigs after inhalation of antigen; format: in vivo; details: -2 hrs, 1% OA, 20 inspirations
Protocol: For this purpose, guinea-pigs are actively sensitized against ovalbumin (OA) with 20 μg OA+20 mg Al(OH)3 in 0.5 ml, administered intraperitoneally (i.p.) and a booster dose of the same is administered 14 days later. One week after the booster dose, the animals are i.p. anaesthetized with urethane and connected to an apparatus (Mumed Physiological Recorder 800) for the determination of pulmonary function parameters. The animals are pretreated with mepyramine to antagonize the histamine, with indomethacin to inhibit the formation of prostaglandins, and with propanolol to eliminate β-adrenergic mechanisms. If an allergic reaction is induced after this treatment, the associated bronchospam is extensively attributable to the effect of leukotrienes.
Before the experiment the test substances were administered orally two hours before the challenge. After an equilibration period an asthmatic challenge attack is induced by the nebulization of a 1% ovalbumin solution over 20 inspirations.
The drop in dynamic compliance is used as a suitable and well reproducible parameter for characterizing the action of leukotrienes. Under control conditions, after pretreatment and ovalbumin challenge, guinea-pigs react with a slow drop in compliance of c. 30-40% over 15 minutes.

late phase eosinophilia = assay: Inhibition of late phase eosinophilia 24 hours after the inhalational ovalbumin challenge on actively sensitized guinea-pigs; format: in vivo; details: -2 h; for EOS, B (eosinophils in the group treated with the substance, with challenge): x ± s
Excerpt: Eosinophilic granulocytes play an important part in the transition of allergic diseases, e.g. bronchial asthma, to the chronic stage. Thus the bronchoalveolar lavage fluid (BAL) contains an increased number of eosinophils a few hours after an allergen-induced asthmatic attack. Eosinophils are expected to play an important part in cell damage since they contain histotoxic proteins, like major basic protein (MBP) and eosinophil cation protein (ECP), in their granula. It is also assumed that substances which prevent the infiltration of eosinophils have a therapeutic action against allergic diseases like bronchial asthma.
The inhibition of eosinophil infiltration by the substances was tested in vivo on guinea-pigs actively sensitized against ovalbumin by the substantenous administration of 10 μg of OA, with 1 μg of aluminum hydroxide adjuvant, three weeks before the beginning of the experiment, and a booster dose containing the same amount of OA and aluminum hydroxide was administrated substantaneously one week before the beginning of the experiment. Three weeks after the first sensitization, the animals were placed in a plastic box and exposed to an aerosol of 0.5% OA dissolved in a physiological saline solution. The nebulization time was 20-30 seconds. After 24 hours the animals were intraperitoneally anaesthetized with 1.5 g/kg body weight ethylurethane and a bronchioalveolar lavage was performed with 2×5 ml of physiological saline solution. The lavage fluid was collected and centrifuged at 400 G for 10 minutes and the cell pellet was then resuspended in 1 ml of physiological saline solution. The eosinophils were microscopically counted in a Neubauer chamber after staining using the No. 5877 Becton-Dickinson test kit for eosinophilia. The number of eosinophils was indicated in millions per animal. Each test was also carried out with two control groups with and without antigen challenge.
The percentage inhibition of the eosinophilia in the experimental groups treated with the substance is calculated by the following formula:
(A-C)-(B-C)/(A-C)×100=% inhibition
The test substances were administered orally or intraperitoneally as a triturate in 0.5% 5-hydroxyethylcellulose two hours before the antigen challenge.

With `COc1ccc2c(c1)c(O)nn2Cc1ccc(OCc2ccc3ccccc3n2)cc1` [Example 50] the IC50 [1] was 44 nM, the IC50 [2] was 2900 nM and the “% drop in dyn. compliance” value ([3]; 5.0 mg/kg oral) was 22 ± 10%. For the same compound, the “% inhibition” value ([3]; 5.0 mg/kg oral) was 45%, the “% drop in dyn. compliance” value ([3]; 10.0 mg/kg oral) was 12 ± 11% and the “% inhibition” value ([3]; 10.0 mg/kg oral) was 70%. For the same compound, the “% inhibition (eosinophilia)” value (late phase eosinophilia; 10 mg/kg i.p.) was 46.0%, the “EOS, B (eosinophils in the group treated with the substance, with challenge)” value (late phase eosinophilia; 10 mg/kg i.p.) was 3.8 ± 2.8 mill./animal and the “% inhibition (eosinophilia)” value (late phase eosinophilia; 30 mg/kg p.o.) was 34.0%. For the same compound, the “EOS, B (eosinophils in the group treated with the substance, with challenge)” value (late phase eosinophilia; 30 mg/kg p.o.) was 6.0 ± 3.4 mill./animal.
